Measured values reported in patent publication US20240246967A1, “AXL COMPOUNDS” (ARCUS BIOSCIENCES, INC., priority 2021, published 2024).

Target: T1, human MER (Homo sapiens, UniProt Q12866)
T1 construct: purchased Invitrogen
T1 sequence (Q12866 21-999): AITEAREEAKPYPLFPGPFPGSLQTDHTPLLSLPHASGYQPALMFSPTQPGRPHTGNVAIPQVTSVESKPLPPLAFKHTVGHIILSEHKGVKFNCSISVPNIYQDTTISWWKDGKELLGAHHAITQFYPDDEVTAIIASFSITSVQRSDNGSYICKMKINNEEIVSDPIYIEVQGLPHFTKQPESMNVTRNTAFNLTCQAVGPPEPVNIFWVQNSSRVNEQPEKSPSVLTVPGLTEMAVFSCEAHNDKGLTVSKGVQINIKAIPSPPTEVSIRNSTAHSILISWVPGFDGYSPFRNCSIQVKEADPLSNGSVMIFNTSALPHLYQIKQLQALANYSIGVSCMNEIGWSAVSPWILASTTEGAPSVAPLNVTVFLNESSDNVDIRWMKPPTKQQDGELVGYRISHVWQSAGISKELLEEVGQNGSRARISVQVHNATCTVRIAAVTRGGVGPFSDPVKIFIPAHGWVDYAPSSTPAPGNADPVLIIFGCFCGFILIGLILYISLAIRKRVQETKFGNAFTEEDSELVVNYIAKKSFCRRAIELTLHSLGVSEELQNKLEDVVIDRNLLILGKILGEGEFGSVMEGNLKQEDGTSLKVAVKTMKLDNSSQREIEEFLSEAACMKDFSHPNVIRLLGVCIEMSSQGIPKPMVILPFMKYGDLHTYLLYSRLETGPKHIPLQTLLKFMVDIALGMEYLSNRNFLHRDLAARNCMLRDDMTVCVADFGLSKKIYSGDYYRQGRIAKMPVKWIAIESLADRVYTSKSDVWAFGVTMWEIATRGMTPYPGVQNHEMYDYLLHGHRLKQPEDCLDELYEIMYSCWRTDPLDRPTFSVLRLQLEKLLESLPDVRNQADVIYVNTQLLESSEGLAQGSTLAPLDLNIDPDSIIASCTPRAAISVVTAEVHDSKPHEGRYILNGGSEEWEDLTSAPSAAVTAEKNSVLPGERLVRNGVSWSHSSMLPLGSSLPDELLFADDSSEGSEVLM
Experiment: HTRF KinEASE-TK biochemical potency assay, MER
Details: 1 nM MER, 700 μM ATP, 800 nM TK Substrate-biotin
In short: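 Enzyme (final 5 nM AXL; 1 nM TYRO3 or MER) plus compound, 1 h RT → add biotinylated TK substrate (800 nM final) and ATP (700 μM final) → 2 h RT → stop into HTRF detection mix → read 665/620 nm. Activity normalised to DMSO and pre-stopped blanks.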

Structure (SMILES) | IC50 [nM]
NC(=O)c1ccc(-c2n[nH]c3ncc(-c4ccc5c(c4)CC[C@@H](N4CCCC4)CC5)cc23)cc1Cl [Example 84, (S)-2-Chloro-4-(5-(7-(pyrrolidin-1-yl)-6,7,8,9-tetrahydro-5H-benzo[7]annulen-2-yl)-1H-pyrazolo[3,4-b]pyridin-3-yl)benzamide] | < 100
O=C(c1ccc(-c2n[nH]c3ncc(-c4ccc5c(c4)CC[C@@H](N4CCCC4)CC5)cc23)cc1Cl)N1CCC(O)CC1 [Example 85, (S)-(2-Chloro-4-(5-(7-(pyrrolidin-1-yl)-6,7,8,9-tetrahydro-5H-benzo[7]annulen-2-yl)-1H-pyrazolo[3,4-b]pyridin-3-yl)phenyl)(4-hydroxypiperidin-1-yl)methanone] | 100 to 1000
COc1cc(-c2n[nH]c3ncc(-c4ccc5c(c4)CCC(C)(N4CCC[C@H]4C)CC5)cc23)ccc1S(N)(=O)=O (stereo partly drawn) [Example 87, 2-Methoxy-4-(5-(7-methyl-7-((R)-2-methylpyrrolidin-1-yl)-6,7,8,9-tetrahydro-5H-benzo[7]annulen-2-yl)-1H-pyrazolo[3,4-b]pyridin-3-yl)benzenesulfonamide] | 100 to 1000
C[C@@H]1CCCN1C1(C)CCc2ccc(-c3cnc4[nH]nc(-c5ccc(C(=O)NC6CCOCC6)cc5)c4c3)cc2CC1 (stereo partly drawn) [Example 88, 4-(5-(7-Methyl-7-((R)-2-methylpyrrolidin-1-yl)-6,7,8,9-tetrahydro-5H-benzo[7]annulen-2-yl)-1H-pyrazolo[3,4-b]pyridin-3-yl)-N-(tetrahydro-2H-pyran-4-yl)benzamide] | > 1000
COC1CCN(C(=O)c2ccc(-c3n[nH]c4ncc(-c5ccc6c(c5)CCC(C)(N5CCC[C@H]5C)CC6)cc34)cc2)CC1 (stereo partly drawn) [Example 89, (4-Methoxypiperidin-1-yl)(4-(5-(7-methyl-7-((R)-2-methylpyrrolidin-1-yl)-6,7,8,9-tetrahydro-5H-benzo[7]annulen-2-yl)-1H-pyrazolo[3,4-b]pyridin-3-yl)phenyl)methanone] | 100 to 1000
Cc1cc2c(cc1-c1cnc3[nH]nc(-c4ccc(C(C)(C)O)c(Cl)c4)c3c1)CCC(N1CCC[C@H]1C)CC2 (stereo partly drawn) [Example 90, 2-[2-Chloro-4-(5-{3-methyl-7-[(2R)-2-methylpyrrolidin-1-yl]-6,7,8,9-tetrahydro-5H-benzo[7]annulen-2-yl}-1H-pyrazolo[3,4-b]pyridin-3-yl)phenyl]propan-2-ol] | > 1000
NS(=O)(=O)c1ccc(-c2n[nH]c3ncc(-c4ccc5c(c4)CC[C@@H](N4CCCC4)CC5)cc23)cc1Cl [Example 91, (S)-2-Chloro-4-(5-(7-(pyrrolidin-1-yl)-6,7,8,9-tetrahydro-5H-benzo[7]annulen-2-yl)-1H-pyrazolo[3,4-b]pyridin-3-yl)benzenesulfonamide] | 100 to 1000
NS(=O)(=O)c1ccc(-c2n[nH]c3ncc(-c4ccc5c(c4)CCN(C4CCCC4)CC5)cc23)cc1Cl [Example 92, 2-Chloro-4-(5-(3-cyclopentyl-2,3,4,5-tetrahydro-1H-benzo[d]azepin-7-yl)-1H-pyrazolo[3,4-b]pyridin-3-yl)benzenesulfonamide] | 100 to 1000
C[C@@H]1CCCN1C1(C)CCc2ccc(-c3cnc4[nH]nc(-c5ccc(S(N)(=O)=O)c(Cl)c5)c4c3)cc2CC1 (stereo partly drawn) [Example 93, 2-Chloro-4-(5-(7-methyl-7-((R)-2-methylpyrrolidin-1-yl)-6,7,8,9-tetrahydro-5H-benzo[7]annulen-2-yl)-1H-pyrazolo[3,4-b]pyridin-3-yl)benzenesulfonamide] | < 100
